Measurements as given in patent US20170239237A1, “PYRROLOQUINOLINE DERIVATIVES AS 5-HT6 ANTAGONISTS, PREPARATION METHOD AND USE THEREOF” (Uniwersytet Jagiellonski, priority 2013, published 2017).
Like-named read-outs stand apart in the source and are kept apart here. Marks after values point to notes of the source that are not given here.

Key:
Wistar rats [1] = assay: Conflict drinking test (Vogel test) in Wistar rats; assay type: in vivo, rat; details: for active dose in the conflict drinking test (Vogel test), increasing number of licks and shocks received: rats; for Minimum effective dose, conflict drinking (Vogel test) in rats (potential anxiolytic properties): IP, 60 minutes before the test, Wistar rats
Method: (§1) For intraperitoneal (i.p.) administration: to the desired quantity of the solid compound in a glass beaker, required volume of sterile water for injection was added and swirled with glass bar until complete dissolution of the compound.
(§2) Animals. Male Wistar rats weighing 220-250 g were used in the test. […] All animals were kept in an environmentally controlled rooms (ambient temperature 22±2° C; relative humidity 50-60%; 12:12 light:dark cycle, lights on at 8:00). They were allowed to acclimatize with the environment for one week before commencement of the experiments. Standard laboratory food (Ssniff M-Z) and filtered water were freely available. The experiments were conducted in the light phase between 09.00 and 14.00 hours. 1 h before the start of the experiment, rats were transferred to the experimental room for acclimation.
Apparatus and procedure. […] Experimental chambers were connected to PC software by control chassis and electric shocks' generator. On the first day of the experiment, the rats were adapted to the test chambers for 10 min. […] Afterwards, they were allowed a 30-min free-drinking session in their home cages. […] Recording data started immediately after the first lick and every 20 licks rats were punished with an electric shock (0.5 mA, lasting 1 s). The impulses were released via the spout of the drinking bottles. If a rat was drinking when an impulse was released, it received a shock. The number of licks and the number of shocks received during a 5-min experimental session was recorded automatically.
(§3) Experimental design. The compounds were administered IP, 60 minutes before the test.
(§4) Drugs. The experimental compounds were dissolved in the distilled water. All compounds were administrated in the volume of 2 ml/kg.

5-HT1A receptor = biological target: T1, 5-HT1A receptor (Homo sapiens, UniProt P08908); assay: Radioligand binding, 5-HT1A ([3H]-8-OH-DPAT displacement)
T1 sequence (P08908 1-422): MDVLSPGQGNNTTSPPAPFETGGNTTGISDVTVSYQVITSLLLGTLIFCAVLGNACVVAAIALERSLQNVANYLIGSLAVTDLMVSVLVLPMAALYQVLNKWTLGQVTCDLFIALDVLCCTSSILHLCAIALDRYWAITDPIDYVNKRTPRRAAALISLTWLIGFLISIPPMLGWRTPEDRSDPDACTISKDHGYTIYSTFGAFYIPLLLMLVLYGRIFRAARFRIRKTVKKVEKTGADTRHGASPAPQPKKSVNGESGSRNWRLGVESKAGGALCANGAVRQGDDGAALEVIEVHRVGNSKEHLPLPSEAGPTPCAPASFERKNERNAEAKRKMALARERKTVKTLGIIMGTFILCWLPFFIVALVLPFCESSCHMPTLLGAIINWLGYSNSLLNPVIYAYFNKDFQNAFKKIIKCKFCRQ

5-HT7 receptor = 5-HT7 receptor (Homo sapiens, UniProt P34969); assay: Radioligand binding, 5-HT7 ([3H]-5-CT displacement)
5-HT7 receptor, sequence (P34969 1-432 limits assumed): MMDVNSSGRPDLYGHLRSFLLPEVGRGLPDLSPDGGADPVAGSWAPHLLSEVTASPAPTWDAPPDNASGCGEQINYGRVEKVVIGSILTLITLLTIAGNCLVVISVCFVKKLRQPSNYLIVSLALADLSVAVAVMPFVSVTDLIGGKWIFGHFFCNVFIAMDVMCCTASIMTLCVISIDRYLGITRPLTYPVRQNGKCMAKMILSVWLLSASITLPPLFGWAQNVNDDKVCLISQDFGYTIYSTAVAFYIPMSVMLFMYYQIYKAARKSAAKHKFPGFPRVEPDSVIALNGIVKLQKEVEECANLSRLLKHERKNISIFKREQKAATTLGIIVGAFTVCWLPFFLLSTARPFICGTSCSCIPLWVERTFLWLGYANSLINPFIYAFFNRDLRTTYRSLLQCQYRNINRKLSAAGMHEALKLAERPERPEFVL

dopamine D2L receptor = dopamine D2L receptor (Homo sapiens, UniProt P14416); assay: Radioligand binding, D2 ([3H]-raclopride displacement)
dopamine D2L receptor, sequence (P14416 whole entry): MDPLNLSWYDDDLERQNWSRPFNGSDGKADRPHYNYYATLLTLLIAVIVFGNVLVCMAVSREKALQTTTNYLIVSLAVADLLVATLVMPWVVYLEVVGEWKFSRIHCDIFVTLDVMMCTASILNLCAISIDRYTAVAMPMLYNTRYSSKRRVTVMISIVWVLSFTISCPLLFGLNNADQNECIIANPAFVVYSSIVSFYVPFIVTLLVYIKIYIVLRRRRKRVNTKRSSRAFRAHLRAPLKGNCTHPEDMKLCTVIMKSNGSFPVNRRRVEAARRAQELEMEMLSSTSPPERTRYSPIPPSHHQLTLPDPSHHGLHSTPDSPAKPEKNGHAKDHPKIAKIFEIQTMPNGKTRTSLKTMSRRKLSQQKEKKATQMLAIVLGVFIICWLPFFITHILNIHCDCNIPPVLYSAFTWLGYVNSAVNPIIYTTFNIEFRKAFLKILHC

D3 receptors = D3 receptors (Homo sapiens, UniProt P35462); assay: biochemical; details: read-out: % inhibition of control binding at 10^−6M, D3
D3 receptors, sequence (P35462 whole entry): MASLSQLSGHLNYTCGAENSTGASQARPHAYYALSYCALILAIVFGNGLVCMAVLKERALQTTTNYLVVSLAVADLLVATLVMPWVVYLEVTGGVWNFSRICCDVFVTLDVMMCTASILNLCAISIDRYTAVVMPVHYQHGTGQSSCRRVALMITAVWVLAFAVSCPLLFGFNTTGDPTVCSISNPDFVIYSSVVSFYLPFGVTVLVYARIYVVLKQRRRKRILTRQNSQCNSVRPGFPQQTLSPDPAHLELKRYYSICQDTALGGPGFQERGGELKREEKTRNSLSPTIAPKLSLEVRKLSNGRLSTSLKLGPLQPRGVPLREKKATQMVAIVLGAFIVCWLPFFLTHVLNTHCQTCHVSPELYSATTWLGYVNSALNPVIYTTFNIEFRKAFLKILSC
Method: (§5) Each compound was tested in duplicate at 10^-6 M concentration.

M1 receptors = biological target: T2, M1 receptors (Homo sapiens, UniProt P11229); assay: biochemical; details: read-out: % inhibition of control binding at 10^−6M, M1
T2 sequence (P11229 1-460): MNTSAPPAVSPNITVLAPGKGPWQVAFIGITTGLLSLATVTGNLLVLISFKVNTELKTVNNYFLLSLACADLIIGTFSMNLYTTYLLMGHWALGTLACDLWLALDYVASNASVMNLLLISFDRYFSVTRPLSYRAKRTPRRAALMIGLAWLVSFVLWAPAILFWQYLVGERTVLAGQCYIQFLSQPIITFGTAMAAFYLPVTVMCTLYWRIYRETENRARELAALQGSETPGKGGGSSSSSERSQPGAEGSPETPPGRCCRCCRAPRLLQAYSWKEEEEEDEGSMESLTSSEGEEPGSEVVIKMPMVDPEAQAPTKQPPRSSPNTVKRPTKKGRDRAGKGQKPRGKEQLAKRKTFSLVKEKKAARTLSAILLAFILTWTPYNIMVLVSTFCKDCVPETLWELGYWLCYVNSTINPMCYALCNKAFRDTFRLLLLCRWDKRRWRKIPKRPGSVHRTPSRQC
Method: as §5

5-HT2C receptors = biological target: T3, 5-HT2C receptors (Homo sapiens, UniProt P28335); assay: biochemical; details: read-out: % inhibition of control binding at 10^−6M, 5-HT2C
T3 sequence (P28335 33-458): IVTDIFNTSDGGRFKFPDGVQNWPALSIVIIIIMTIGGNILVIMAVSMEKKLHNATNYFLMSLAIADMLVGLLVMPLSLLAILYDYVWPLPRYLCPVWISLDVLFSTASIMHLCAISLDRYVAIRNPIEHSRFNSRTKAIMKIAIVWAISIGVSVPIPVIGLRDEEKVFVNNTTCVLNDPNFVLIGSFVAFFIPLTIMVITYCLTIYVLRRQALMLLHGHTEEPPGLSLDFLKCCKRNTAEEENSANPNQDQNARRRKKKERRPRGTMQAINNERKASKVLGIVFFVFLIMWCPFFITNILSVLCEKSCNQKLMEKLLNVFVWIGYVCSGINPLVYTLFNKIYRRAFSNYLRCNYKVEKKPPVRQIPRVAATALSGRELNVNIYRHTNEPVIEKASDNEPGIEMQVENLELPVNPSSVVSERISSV
Method: as §5

Wistar rats [2] = assay: Forced swim test (FST) in Wistar rats; assay type: in vivo, rat; details: for Minimum effective dose, forced swim test in rats (potential antidepressant properties): IP, 60 minutes before the test, Wistar rats
Method: as §1, §2
Apparatus and procedure. […] On the first day of experiment, the animals were gently individually placed in Plexiglas cylinders (40 cm high, 18 cm in diameter) containing 15 cm of water maintained at 25° C. for 15 min. Upon removal from water, the rats were placed in a Plexiglas box for 30 min under a 60-W bulb to dry off. On the following day, the rats were placed again in the cylinder and the total duration of immobility was recorded throughout the 5-min test period. Fresh water was used for each animal.
as §3, §4

5-HT6 receptor [3] = biological target: T4, 5-HT6 receptor (Homo sapiens, UniProt P50406); assay: Radioligand binding, 5-HT6 ([3H]-LSD displacement); details: for displacement % at 10^−6M, 5-HT6: values marked c in the 5-HT6 column
T4 sequence (P50406 whole entry): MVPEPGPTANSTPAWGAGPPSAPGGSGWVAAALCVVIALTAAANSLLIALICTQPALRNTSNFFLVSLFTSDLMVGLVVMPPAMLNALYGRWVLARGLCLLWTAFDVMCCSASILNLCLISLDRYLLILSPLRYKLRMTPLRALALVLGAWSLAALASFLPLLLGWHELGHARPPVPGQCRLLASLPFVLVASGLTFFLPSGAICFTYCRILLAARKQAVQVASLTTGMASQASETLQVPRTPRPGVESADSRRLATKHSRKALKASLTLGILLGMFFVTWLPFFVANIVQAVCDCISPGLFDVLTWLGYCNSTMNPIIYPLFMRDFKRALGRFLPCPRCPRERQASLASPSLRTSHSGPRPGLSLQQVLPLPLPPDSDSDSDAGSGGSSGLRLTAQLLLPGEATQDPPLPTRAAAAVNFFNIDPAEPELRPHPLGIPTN

5-HT6 receptor [4] = biological target: T4, 5-HT6 receptor; assay: CHO-human-5HT6-Aequorin functional assay (ago-/antagonism); details: test concentration not given; for % inhibition of control agonist response: agonist effect, CHO-human-5HT6-Aequorin cells; for % inhibition of control antagonist response: antagonist effect vs 10^-6 M α-methylserotonin induced luminescence
Sprague-Dawley rats = assay: Novel object recognition (NOR) test in Sprague-Dawley rats, PCP-induced deficit; assay type: in vivo, rat
Method: Rats were allowed to acclimatize for at least 7 days before the start of the experimental procedure. During this week animals were handled for at least 3 times. Behavioral testing was carried out during the light phase of the light/dark cycle. At least 1 h before the start of the experiment, rats were transferred to the experimental room for acclimation.
Apparatus and procedure. Rats were tested in a dimly lit (25 lx) “open field” apparatus made of a dull gray plastic (66×56×30 cm). After each measurement, the floor was cleaned and dried.
The procedure lasting for 2 days consisted of the habituation to the test arena (without any objects) for 5 min. The test session comprising of two trials separated by an inter-trial interval (ITI) of 1 h was carried out on the next day. […]
Exploration time of the objects and the distance traveled were measured using the Any-maze® video tracking system. Based on exploration time (E) of two objects during T2, discrimination index (DI) was calculated according to the formula: […]

[5] = read-out: Ki 5-HT1A, cloned human receptor in HEK293, three independent experiments, SEM ± 22%

| SMILES | Minimum effective dose, conflict drinking (Vogel test) in rats (potential anxiolytic properties) (Wistar rats [1]) [mg/kg] | Minimum effective dose, forced swim test in rats (potential antidepressant properties) (Wistar rats [2]) [mg/kg] | Ki (5-HT1A receptor) [nM] | Ki (5-HT7 receptor) [nM] | Ki (dopamine D2L receptor) [nM] | Ki (5-HT6 receptor [3]) [nM] | % inhibition of control agonist response (5-HT6 receptor [4]) [%] | % inhibition of control antagonist response (5-HT6 receptor [4]) [%] | also measured |
| --- | --- | --- | --- | --- | --- | --- | --- | --- | --- |
| CN1C(=O)CN=C(c2ccccc2)c2cc(Cl)ccc21 [diazepam, reference compound] | – | – | – | – | – | – | – | – | active dose in the conflict drinking test (Vogel test), increasing number of licks and shocks received (Wistar rats [1]): 5 to 10 mg/kg |
| O=S(=O)(c1cccc(Cl)c1)n1ccc2c(N3CCNCC3)nc3ccccc3c21 [Compound 29, 1-((3-chlorophenyl)sulfonyl)-4-(piperazin-1-yl)-1H-pyrrolo[3,2-c]quinoline] | 10 | >10 | – | – | – | – | – | – | Ki (5-HT1A receptor; [5]): 773 nM; Ki (5-HT7 receptor; read-out: Ki 5-HT7): 1790 nM; Ki (dopamine D2L receptor; read-out: Ki D2, cloned human receptor in HEK293, three independent experiments, SEM ± 22%): 1340 nM; melting point: 161 to 163 °C; inhibition at 1 µM (D3 receptors): 66%; inhibition at 1 µM (M1 receptors): -11%; inhibition at 1 µM (5-HT2C receptors): 13% |
| O=S(=O)(c1cccc2cccnc12)n1ccc2c(NC3CCNC3)nc3ccccc3c21 (stereo not drawn) [Compound 22, 1-(quinolin-8-ylsulfonyl)-N-(pyrrolidin-3-yl)-1H-pyrrolo[3,2-c]quinolin-4-amine] | – | – | 15200 | 18500 | 6400 | 4 | 16.4 | 70.2 | – |
| O=S(=O)(c1cccc2cccnc12)n1ccc2c(N3CCNCC3)nc3ccccc3c21 [Compound 45, 1-(quinolin-8-ylsulfonyl)-4-(piperazin-1-yl)-1H-pyrrolo[3,2-c]quinoline] | – | – | 922 | 7810 | 6340 | 5 | 7.8 | 75.8 | – |
| O=S(=O)(c1cccc(F)c1)n1ccc2c(N[C@@H]3CCNC3)nc3ccccc3c21 [Compound 10, (R)-1-((3-fluorophenyl)sulfonyl)-N-(pyrrolidin-3-yl)-1H-pyrrolo[3,2-c]quinolin-4-amine] | 10 | – | – | – | – | – | – | – | displacement % at 10^−6M, 5-HT6 (5-HT6 receptor [3]): 100^c % |
| O=S(=O)(c1cccc2ccccc12)n1ccc2c(N3CCNCC3)nc3ccccc3c21 [Compound 43, 1-(naphthalen-1-ylsulfonyl)-4-(piperazin-1-yl)-1H-pyrrolo[3,2-c]quinoline] | – | – | 711 | 1990 | 4010 | – | – | – | melting point: 158 to 160 °C |
| Cc1c(S(=O)(=O)n2ccc3c(N4CCNCC4)nc4ccccc4c32)sc2ccc(Cl)cc12 [Compound 48, 1-((5-chloro-3-methylbenzo[b]thiophen-2-yl)sulfonyl)-4-(piperazin-1-yl)-1H-pyrrolo[3,2-c]quinoline] | – | – | 1470 | 8820 | 190 | 16 | 2.7 | 37.7 | – |
| O=S(=O)(c1cccc(Cl)c1)n1ccc2c(N[C@H]3CCNC3)nc3ccccc3c21 [Compound 6, (S)-1-((3-chlorophenyl)sulfonyl)-N-(pyrrolidin-3-yl)-1H-pyrrolo[3,2-c]quinolin-4-amine] | 3 | 10 | 2350 | 4990 | 1010 | – | – | – | inhibition at 1 µM (D3 receptors): 69%; inhibition at 1 µM (M1 receptors): 9%; inhibition at 1 µM (5-HT2C receptors): 21% |
| COc1ccc(NS(=O)(=O)c2sc3ccc(Cl)cc3c2C)cc1N1CCNCC1 [SB-271046, reference compound] | – | – | – | – | – | – | – | – | dose effective against PCP-induced cognitive deficit in NOR test (Sprague-Dawley rats): 1 mg/kg; active dose in the conflict drinking test (Vogel test), increasing number of licks and shocks received (Wistar rats [1]): ≤ 10 mg/kg; effective dose in the forced swim test (reference compounds) (Wistar rats [2]; rats, antidepressant-like activity, imipramine increased climbing time): 10 mg/kg |
| O=S(=O)(c1cccc(F)c1)n1ccc2c(N3CCNCC3)nc3ccccc3c21 [Compound 30, 1-((3-fluorophenyl)sulfonyl)-4-(piperazin-1-yl)-1H-pyrrolo[3,2-c]quinoline] | 10 | 10 | – | – | – | – | – | – | Ki (5-HT1A receptor; [5]): 437 nM |
| O=S(=O)(c1ccc(F)cc1)n1ccc2c(NC3CCNC3)nc3ccccc3c21 (stereo not drawn) [Compound 11, 1-((4-fluorophenyl)sulfonyl)-N-(pyrrolidin-3-yl)-1H-pyrrolo[3,2-c]quinolin-4-amine] | – | – | 5830 | 6880 | 664 | 18 | 4.8 | 51.8 | – |
| CC(C)c1ccc(S(=O)(=O)n2ccc3c(N4CCNCC4)nc4ccccc4c32)cc1 [Compound 40, 1-((4-isopropylphenyl)sulfonyl)-4-(piperazin-1-yl)-1H-pyrrolo[3,2-c]quinoline] | – | – | 148 | 3260 | 2540 | – | −5.2 | 65.3 | Ki (5-HT6 receptor [3]; read-out: Ki 5-HT6, cloned human receptor in HEK293, three independent experiments, SEM ± 22%): 14 nM |
| Nc1ccc(S(=O)(=O)n2ccc3c(N4CCNCC4)nc4ccccc4c32)cc1 [Compound 42, 1-(4-(aminophenyl)sulfonyl)-4-(piperazin-1-yl)-1H-pyrrolo[3,2-c]quinoline] | 3 | 0.1 | – | – | – | – | – | – | displacement % at 10^−6M, 5-HT6 (5-HT6 receptor [3]): 97^c % |
